The test system of the test is iCell cardiomyocytes (human iPSC-derived cardiomyocytes). The test is described as follows: High-content imaging of cytotoxicity and mitochondrial integrity in iPSC-CMs. The class given is cell-based. To be noted: Homo sapiens, Cardiomyocyte; for viability at 0.01 µM / activity at 0.01 µM / viability at 0.1 µM / activity at 0.1 µM / viability at 1 µM / activity at 1 µM / viability at 10 µM / activity at 10 µM / viability at 100 µM / activity at 100 µM: 0.00 µM = 100.00; for viability at 0.1 µM / activity at 0.1 µM: 0.10 µM. An outline of the steps:
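Readouts from high-content images were normalized to vehicle controls containing 0.5% vol/vol DMSO. They were fit to a four-parameter logistic model in R. Points of departure were set using a cutoff of one standard deviation across vehicle control means. Where no concentration–response was seen, the top tested concentration of 100μM was assigned as the no observable adverse effect level.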

Where [1] appears, read: 1.5 h, 90min, read-out: cm.cam.90min.
Setting [2] is: 1.5 h, 90min, read-out: cm.mii.90min.
Setting [3] is: 1.5 h, 90min, read-out: cm.mito.90min.
Where [4] appears, read: 1.5 h, 90min, read-out: cm.tc.90min.
The mark [5] stands for this setting: 24 h, 24hrs, read-out: cm.cam.24hrs.
Setting [6] is: 24 h, 24hrs, read-out: cm.mii.24hrs.
[7] abbreviates: 24 h, 24hrs, read-out: cm.mito.24hrs.
Setting [8] is: 24 h, 24hrs, read-out: cm.tc.24hrs.
[9] abbreviates: 1.5 h, cardiomyocytes (cm), cam, 90 min, read-out: POD cm.cam.90min.
Setting [10] is: 1.5 h, cardiomyocytes (cm), mii, 90 min, read-out: POD cm.mii.90min.
[11] abbreviates: 1.5 h, cardiomyocytes (cm), mito, 90 min, read-out: POD cm.mito.90min.
[12] abbreviates: 1.5 h, cardiomyocytes (cm), tc, 90 min, read-out: POD cm.tc.90min.
Setting [13] is: 24 h, cardiomyocytes (cm), cam, 24 hrs, read-out: POD cm.cam.24hrs.
The mark [14] stands for this setting: 24 h, cardiomyocytes (cm), mii, 24 hrs, read-out: POD cm.mii.24hrs.
Where [15] appears, read: 24 h, cardiomyocytes (cm), mito, 24 hrs, read-out: POD cm.mito.24hrs.
The mark [16] stands for this setting: 24 h, cardiomyocytes (cm), tc, 24 hrs, read-out: POD cm.tc.24hrs.

Counter-ions that a name gives are not always drawn. Like-named read-outs stand apart in the source and are kept apart here.

For the compound `COc1cc(Cl)c(-c2cc(Cl)ccc2Cl)cc1Cl` [4-OMe PCB52], the viability at 0.01 µM by setting is: under setting [1], 94.3%; under setting [4], 94.2%; under setting [5], 97.9%; under setting [8], 98.3%. The activity at 0.01 µM is, setting by setting: under setting [2], 101%; under setting [3], 94.1%; under setting [6], 95.9%; under setting [7], 98.7%. Moreover, the viability at 0.1 µM runs as follows: under setting [1], 98.7%; under setting [4], 98.8%; under setting [5], 106%; under setting [8], 106%. For the same compound, the activity at 0.1 µM reads like this: under setting [2], 90.9%; under setting [3], 98.7%; under setting [6], 91.2%; under setting [7], 107%. Also, the viability at 1 µM under setting [1] turned out to be 101%, the viability at 1 µM under setting [4] was 101%, the viability at 1 µM under setting [5] amounted to 102% and the viability at 1 µM under setting [8] turned out to be 102%. Further, the activity at 1 µM runs as follows: under setting [2], 95.2%; under setting [3], 101%; under setting [6], 99.8%; under setting [7], 101%. Also, the viability at 10 µM runs as follows: under setting [1], 100%; under setting [4], 100%; under setting [5], 102%; under setting [8], 102%. Besides, the activity at 10 µM runs as follows: under setting [2], 108%; under setting [3], 99.8%; under setting [6], 78.7%; under setting [7], 103%. In addition, the viability at 100 µM is, setting by setting: under setting [1], 0.37%; under setting [4], 0.46%; under setting [5], 4.05%; under setting [8], 4.37%. Moreover, the activity at 100 µM stood at 69.6% under setting [2], 0.37% under setting [3], 55.8% under setting [6] and 2.86% under setting [7]. Moreover, the minimal effective concentration was determined as 27.6 µM (1.5 h, 90min, read-out: cm.cam.90min POD); 57.2 µM (1.5 h, 90min, read-out: cm.mii.90min POD); 18.6 µM (1.5 h, 90min, read-out: cm.mito.90min POD); 33 µM (1.5 h, 90min, read-out: cm.tc.90min POD); 33 µM (24 h, read-out: cm.cam.24hrs POD); 5.58 µM (24 h, read-out: cm.mii.24hrs POD). Besides, the minimal effective concentration by setting is: (24 h, read-out: cm.mito.24hrs POD) 35.8 µM; (24 h, read-out: cm.tc.24hrs POD) 35 µM.

As for `COc1ccc(-c2cccc(Cl)c2)cc1Cl` [4-OMe-PCB 11, 4-methoxy-3,3′-dichlorobiphenyl], the minimal effective concentration reads like this: under setting [9], 33.8 µM; under setting [10], 62.2 µM; under setting [11], 29.1 µM; under setting [12], 28.6 µM; under setting [13], 37.2 µM; under setting [14], 10.8 µM. In addition, the minimal effective concentration was 31.1 µM under setting [15] and 33.4 µM under setting [16].

As for `COc1cc(Cl)c(-c2cc(Cl)ccc2Cl)cc1Cl` [4-OMe-PCB 52, 4-methoxy-2,2′,5,5′-tetrachlorobiphenyl], the minimal effective concentration is, setting by setting: under setting [9], 27.6 µM; under setting [10], 57.2 µM; under setting [11], 18.6 µM; under setting [12], 33 µM; under setting [13], 33 µM; under setting [14], 5.58 µM. In addition, the minimal effective concentration under setting [15] is 35.8 µM and the minimal effective concentration under setting [16] is 35 µM.

Turning to `O=S(=O)(O)Oc1ccc(-c2cccc(Cl)c2)cc1Cl` [4-PCB 11 sulfate], the minimal effective concentration is, setting by setting: under setting [9], 100 µM; under setting [10], 100 µM; under setting [11], 100 µM; under setting [12], 100 µM; under setting [13], 5.91 µM; under setting [14], 49.2 µM. The minimal effective concentration by setting is: under setting [15], 7.07 µM; under setting [16], 6.38 µM.

As for `O=S(=O)(O)Oc1cc(Cl)c(-c2cc(Cl)ccc2Cl)cc1Cl` [4-PCB 52 sulfate], the minimal effective concentration runs as follows: under setting [9], 10.8 µM; under setting [10], 41.2 µM; under setting [11], 10.6 µM; under setting [12], 10.8 µM; under setting [13], 8.2 µM; under setting [14], 44.6 µM. Further, the minimal effective concentration amounted to 8.28 µM under setting [15] and 8.44 µM under setting [16].

Source of the values: publication PMC7377239, “Cardiovascular Effects of Polychlorinated Biphenyls and Their Major Metabolites” (Environmental Health Perspectives, 2020).
